Results on six compounds are retold here after patent publication US4199592A, “Antiinflammatory 4,5-diaryl-2-nitroimidazoles” (E. I. Du Pont de Nemours and Company, priority 1979, dated 1980).

Like-named read-outs stand apart in the source and are kept apart here. Some results are limits rather than exact numbers.

Test [1] relates to adjuvant-induced arthritis in rats. Put plainly: Established Adjuvant-Induced Arthritis in Rats (A.A.). The format is in vivo, Charles River Lewis male rats. The settings on record: Rattus norvegicus, 24 h, read-out: A.A. ED50% (ED50% decrease from control paw volume).
Test [2] deals with stretching or writhing syndrome indicative of pain induced by phenylquinone. Put plainly: Phenylquinone Writhing Test. The settings on record: Mus musculus, 0.5 h; oral, fasted mice; at 1/2 hour; read-out: ED50 (effective analgesic dose for 50% of the mice). Type of test: in vivo, female white mice. As for the experimental part:
Phenylquinone Writhing Test
A standard procedure for detecting and comparing the analgesic activity of compounds in this series for which there is good correlation with human efficacy is the standard phenylquinone writhing test modified from Siegmund, et al., Proc. Soc. Exp. Biol. Med. 95, 729 (1957). A test compound suspended in 1% methylcellulose was given orally to fasted (17-21 hours) female white mice, 5-20 animals per double blind test. Aqueous (0.01% phenyl-p-benzoquinone) phenylquinone was injected intraperitoneally at 24 minutes later using 0.20 ml per mouse. […] The effective analgesic dose for 50% of the mice (ED50) was calculated by the moving average method of Thompson, W. R., Bact. Rev. 11, 115-145 (1947); also time of peak action was determined for many of the compounds.

The mark [3] stands for this setting: oral, rats, 7 daily doses by gavage, paw volume of uninjected left hind paw one day after last dose.

Take `CC(=O)Oc1ccccc1C(=O)O` [Aspirin, aspirin]: the median effective dose (ED50) in test [1] (po) came out at 305 mg/kg.
Regarding `O=[N+]([O-])c1nc(-c2ccc(F)cc2)c(-c2ccc(F)cc2)[nH]1` [Example 1, 4,5-bis(4-Fluorophenyl)-2-nitroimidazole], the 50% effective dose (ED50) stood at 0.6 mg/kg in test [1] (setting [3]) and 59 mg/kg in test [2].
For `COc1ccc(-c2nc([N+](=O)[O-])[nH]c2-c2ccc(OC)cc2)cc1` [Example 2, 4,5-bis(4-Methoxyphenyl)-2-nitroimidazole] the same measures were 2.5 mg/kg and less than 130 mg/kg.
Regarding `CC(C)Cc1ccc(C(C)C(=O)O)cc1` (centres unmarked) [Ibuprofen, ibuprofen], the ED50 in test [1] (setting [3]) amounted to 100 mg/kg.
Take `COc1ccc2c(c1)c(CC(=O)O)c(C)n2C(=O)c1ccc(Cl)cc1` [Indomethacin, indomethacin]: the ED50 in test [1] (po) was determined as 0.3 mg/kg.
Turning to `CCCCC1C(=O)N(c2ccccc2)N(c2ccccc2)C1=O` [Phenylbutazone, phenylbutazone], in test [1] (setting [3]), the ED50 was 10 mg/kg.
